Data as given in the METLIN SMRT retention time set (Domingo-Almenara et al. 2019).

Experiment: gradient 5% acetonitrile 3 min, to 50% in 2 min, to 85% in 15 min, held 3 min, 100 µL/min
Details: column: Zorbax Extend-C18 2.1 x 50 mm; eluents: water / acetonitrile, 0.1% formic acid
How it was run: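 Mixtures of ~100 pure standards were chromatographed on a Zorbax Extend-C18 column (2.1 × 50 mm, 1.8 μm) at 100 μL/min using water and acetonitrile, each with 0.1% formic acid. Detection used a quadrupole time-of-flight mass spectrometer in positive and negative ionization mode, and data collection spanned 3 months. Retention time was obtained from adduct peaks picked computationally and each checked manually.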

Compound | RP-LC retention time
CCN1CCCC1CNS(=O)(=O)c1cc(-c2nc(C)c(C(=O)N3CCCC3)s2)cs1 (stereo not drawn) | 604 s
Cc1cccc(-c2ocnc2C(=O)NC2CCN(C)CC2)c1 | 618 s
CC(C)c1nccn1C1CN(S(=O)(=O)c2cccc(F)c2)C1 | 640 s
COc1ccc(Cl)cc1S(=O)(=O)NCc1cccnc1-c1cccc(C)c1 | 771 s
O=C1CS(=O)C2(CCNCC2)N1Cc1cccc(F)c1 (stereo not drawn) | 566 s
COc1ccc(NC(=O)N(C)CCc2noc(COc3ccccc3F)n2)c(OC)c1 | 877 s
COc1ccc2[nH]cc(CCNC(=O)CC3CCN(C(=O)C4CCCCC4)CC3)c2c1 | 757 s
O=C(CSc1nnc(CNC(=O)c2ccc(F)cc2)o1)NCc1ccc2c(c1)OCO2 | 672 s
CCCC(=O)NC1CCN(c2cc(C)cc(C)c2)C1=O (stereo not drawn) | 750 s
CNCCc1cnc(CCC(c2ccccc2)c2ccccc2)[nH]1 | 608 s
CSc1ccc(-c2nc3ncccn3c2Nc2ccccc2C)cc1 | 839 s
O=C(NCc1csc(C2CCN(C(=O)c3c(F)cccc3F)CC2)n1)C1CCC1 | 740 s
CCN1C(=O)CCc2cc(NC(=O)COc3ccc(F)cc3)ccc21 | 801 s
CC(=O)Nc1c(C)noc1/C=C/c1ccc(S(=O)(=O)N2CCC(C)CC2)s1 | 869 s
CCn1cc(-c2nc(C)c(C(=O)Nc3ccc(F)cc3F)s2)c2cccnc21 | 1010 s
CCOC(=O)N1CCC(NS(=O)(=O)CCCOc2ccc(F)cc2)CC1 | 758 s
CSc1ccc(NC(=O)c2cn3c(n2)COCC3)cc1 | 684 s
CC(C)Cn1cc(CCNS(=O)(=O)c2ccc(F)c(Cl)c2)c2cccnc21 | 1000 s
CCOc1ccc(-c2ccc(=O)n(CCc3nc(-c4cc(OC)cc(OC)c4)no3)n2)cc1 | 1020 s
COc1ccc(-c2nc(-c3ccc(S(=O)(=O)N4CCCC4)cc3)no2)cc1 | 1140 s
O=C(c1ccc2c(c1)OCO2)N1CC2CN(S(=O)(=O)c3ccc(F)cc3)CC(C1)O2 | 774 s
CC1Cc2ccccc2N1C(=O)CCC(=O)N1CCCN(c2cc(=O)n(C)c(=O)n2C)CC1 (stereo not drawn) | 677 s
O=C(Nc1ccccc1C(F)(F)F)N1CCc2nc[nH]c2C1 | 558 s
O=S(=O)(C1CC1)N1CCC(c2nc(-c3ccncc3)no2)C1 (stereo not drawn) | 670 s
CCCS(=O)(=O)N1CCC(N2C(=O)[C@H](OC)[C@@H]2c2ccncc2)CC1 | 700 s

Compound | RP-LC retention time
CC1CCCCN1CCNC(=O)CCCn1c(=O)c2cccn2c2ccc(Br)cc21 (stereo not drawn) | 673 s
O=C(NCc1ccccc1)c1nc(-c2ccncc2)cs1 | 575 s
Cc1cccc(CNC(=O)c2cc(C(C)C)n3nccc3n2)c1 | 1310 s
NC(=O)c1cc2cc(Br)ccc2[nH]1 | 719 s
Cc1ccccc1-c1nc(Cn2ccnc2C)no1 | 555 s
COc1ccc2c(c1)C1(CCN(S(=O)(=O)c3ccc(Br)cc3)C1)C(=O)N2C (stereo not drawn) | 986 s
COc1cccc(N2CCN(S(=O)(=O)c3cc(-c4cc(C(F)(F)F)on4)cs3)CC2)c1 | 1200 s
Cn1ncc2c(N3CCSCC3)nc(C(=O)NCc3ccc(C(F)(F)F)cc3)nc21 | 907 s
CC(C)CC(=O)NC1CCN(c2ccc(F)cc2)C1=O (stereo not drawn) | 742 s
O=C(N[C@H]1C[C@@H]2C[C@H]1CN2C(=O)c1ccc(OC(F)(F)F)cc1)c1cccs1 | 842 s
CCCn1cnc2cc(-c3noc(C(C)NS(=O)(=O)c4ccc(C)cc4)n3)ccc21 (stereo not drawn) | 731 s
O=C(NCc1ccco1)C1CCN(S(=O)(=O)c2cc(C(=O)N3CCCCCC3)cs2)CC1 | 815 s
Cn1nc2n(c1=O)CCC(NC(=O)c1cc(C3CC3)[nH]n1)CC2 (stereo not drawn) | 586 s
O=C1CN(S(=O)(=O)c2ccccc2F)CC2(CCCCC2)N1C1CCCC1 | 1140 s
CCc1nc(N)n(CC(=O)NCc2ccccc2)c(=O)c1C | 623 s
Cc1ccc(NC(=O)CN2C(=O)CSC(C)C2=O)cc1Cl (stereo not drawn) | 819 s
O=C(NCC1CCN(S(=O)(=O)C2CC2)CC1)c1ccccn1 | 652 s
O=C(NCc1nnc(SCc2c(F)cccc2Cl)o1)c1cccc(C(F)(F)F)c1 | 933 s
C[C@H]1C[C@H]2[C@@H]3CCC4=CC(=O)C=C[C@]4(C)[C@H]3C(=O)C[C@]2(C)[C@@]1(O)C(=O)CO | 775 s
Cn1c(=O)n(C)c2cc(CNc3ccc(N4CCOCC4)c(Cl)c3)ccc21 | 811 s
Cc1ccc(NS(=O)(=O)c2ccc(-c3nnc(C4CCC4)o3)o2)c(F)c1 | 925 s
COc1ccc(OC)c(NC(=O)Cn2cccc2-c2nc(-c3ccc4c(c3)OCO4)no2)c1 | 1010 s
CO[C@H]1C(=O)N(C(C)C)[C@H]1C1CCN(C(=O)C(C)C)CC1 | 682 s
NC(=O)C1(c2cccc(C(F)(F)F)c2)CC1 | 764 s

Second part, the compound after the results:

RP-LC retention time | Compound
1060 s | Cc1ccccc1Cn1nc2ccc(S(=O)(=O)N3CCC(C)CC3)cn2c1=O
700 s | COc1ccccc1NC(=O)Nc1c(-c2ccc(C)cc2)nc2ccccn12
792 s | CNC(=O)N1CCCC(c2cccc(C(=O)NC(C)c3ccc(F)cc3)c2)C1 (stereo not drawn)
993 s | COc1ccc(Cl)cc1NC(=O)N1CCc2c(c(-c3nnc(-c4ccc(F)cc4)o3)nn2C)C1
832 s | COc1ccc(S(=O)(=O)NCc2c(-c3ccccc3)nc3sc(C)nn23)cc1
797 s | CCOC(=O)c1cccc(NC(=O)C2CCCN(c3nnc(C)c4c(C)n(-c5ccccc5)nc34)C2)c1 (stereo not drawn)
718 s | CCCC(=O)N1CCC(C(=O)Nc2ccc(OCC)cc2)CC1
789 s | Cc1nc(-c2cnccn2)n(CC(=O)Nc2ccc(F)c(Cl)c2)c(=O)c1C
831 s | O=C(c1cn2ccnc(-c3ccccc3)c2n1)N1CCCC1
953 s | O=C(NCc1ccccc1)c1nnc(-c2ccc(S(=O)(=O)N3CCCCC3)cc2)o1
1130 s | COC(=O)c1ccc(C(=O)OC)c(NC(=O)CSc2ncnc3sc(C)c(C)c23)c1
894 s | Cc1nn(-c2ccccc2)c(C)c1S(=O)(=O)N1CCC(C(=O)NC(C)(C)C)CC1
645 s | CCOc1ccc(CC(=O)N2C[C@@H]3C[C@H](NC(=O)c4cccnc4)[C@H]2C3)cc1
722 s | Cc1ccc2c(Nc3cccc(C(C)C)c3)c(C(=O)N3CCCC(C)C3)cnc2n1 (stereo not drawn)
818 s | Cc1cc(=O)n(CC(=O)NCc2ccccc2Br)c(N2CCc3ccccc3C2)n1
899 s | COC(=O)c1ccc(CN2C(=O)C(O)(c3ccccc3)c3ccccc32)cc1 (stereo not drawn)
996 s | Cc1ccc(N2C(=O)C3N=NN(Cc4nc(-c5ccccc5Cl)no4)C3C2=O)cc1 (stereo not drawn)
912 s | Cc1ccc(CNC(=O)C2(C)CCCN(C(=O)Nc3cc(C)cc(C)c3)C2)cc1 (stereo not drawn)
853 s | CCCn1c(=O)c(C)nc2cc(-c3noc(CNS(=O)(=O)c4ccccc4)n3)ccc21
993 s | COc1cccc(-n2c(N3CCCC(C(=O)Nc4ccc(F)c(F)c4)C3)nc3ccsc3c2=O)c1 (stereo not drawn)

RP-LC retention time | Compound
899 s | Cc1cccc(NC(=O)Cn2nc3c(Oc4cccc(Cl)c4)nccn3c2=O)c1
937 s | Cc1ccc(-c2noc(C3CC3)n2)cc1S(=O)(=O)N1CCC(C(=O)Nc2nccs2)CC1
722 s | COc1cccc(C(=O)NC2CCN(c3cc(-c4cccs4)[nH]n3)C2)c1OC (stereo not drawn)
878 s | CCOc1ccc(C(=O)N2CCC3(CC2)NC(=O)c2cc(C)ccc2N3CC)cc1
1060 s | CCn1cc(C(=O)NCCCOC(C)C)c(S(=O)(=O)N2CCN(c3cccc(Cl)c3)CC2)n1
742 s | CCCC(NC(=O)c1ccc(Cl)cc1)C(=O)Nc1nc2ccccc2[nH]1 (stereo not drawn)
1120 s | CN(Cc1ccccc1)C(=O)Cn1c(=O)c2cnc(-c3ccc(Cl)cc3)nc2n(C)c1=O
713 s | CCC(C(=O)Nc1c(-c2ccc(OC)cc2)nc2cc(C)ccn12)c1ccccc1 (stereo not drawn)
744 s | Cc1cccc(CNS(=O)(=O)c2cc(-c3[nH]ncc3C(=O)N3CCCC3)oc2C)c1
860 s | O=C(Cn1cccc1-c1nnc(-c2ccccc2)o1)NCc1ccc2c(c1)OCO2
697 s | CCOc1ccc(NC(=O)Nc2c(-c3cccc(C)c3)nc3ccccn23)cc1
848 s | O=C(Cn1nc2c3sc(N4CCCCC4)nc3ncn2c1=O)Nc1ccc(Br)cc1
929 s | O=C(NCc1ccccc1F)c1cn(-c2ccc(-c3nc(C4CC4)no3)cn2)cn1
1100 s | CCc1ccc(NC(=O)Cn2nc(N3CCC(C)CC3)c3ccccc3c2=O)cc1
650 s | CC(C)N(C(=O)CSc1nc2ccccc2[nH]1)c1ccccc1
744 s | Cc1cccc(C)c1NC(=O)Cn1nc(N2CCOCC2)c2ccccc2c1=O
834 s | Cn1cc(C(=O)NCc2ccccc2)c(S(=O)(=O)N2CCSCC2)n1
849 s | O=C(Nc1ccc(F)cc1)C1CCCN(c2ccc(=O)n(-c3ccc(F)cc3)n2)C1 (stereo not drawn)
536 s | Cc1cnc(C2CN(Cc3cccnc3)C2)n1Cc1ccccc1
